# Data taken from patent US5096924A, “Anticancer antibiotic MI43-37F11 substance” (501 Azidan Hojin Biseibutsu Kagaku Kenkyu Kai, priority 1989, dated 1992).
# “Also recorded” adds a separate entry of the source.
# Experiments:
# mouse Leukemia L1210 = experiment: Inhibition of proliferation of mouse leukemia L1210 cells; assay type: cell-based; conditions: 48 h; mouse leukemia L1210, 37° C, 2 days
# Protocol: (§1) A cell suspension containing cells of mouse Leukemia L1210, mouse Leukemia P388, mouse Leukemia EL4, mouse IMC carcinoma or human lung cancer LX-1 cells in a culture medium containing 10% calf serum at a cell density of 1 x 10^5 cells/ml was prepared, and 200 μl-portion of the cell suspension so prepared was placed in a microplate and then added with a solution of MI43-37F11 substance at varying concentrations (dissolved in a mixture of water and dimethylsulfoxide (95:5)). The cell suspension containing the test compound added was subsequently incubated at 37° C for 2 days (but 5 days for the LX-1 cells).
# (§2) After the incubation, the number of the cells of the L1210 cells, P388 cells, the EL4 cells and the IMC carcinoma cells in the treated groups was counted by means of Coulter-counter. The control group (untreated) of the cell suspension to which the test compound was not added was incubated in the same way as above and then the number of the cells was similarly counted.
# (§3) Rate (%) of inhibition of the cell proliferation of the treated group against that of the control group (untreated) was evaluated. […]
# mouse Leukemia EL4 = experiment: Inhibition of proliferation of mouse leukemia EL4 cells; assay type: cell-based; conditions: 48 h; mouse leukemia EL4, 37° C, 2 days
# Protocol: as §1, §2, §3
# human lung cancer LX-1 = experiment: Inhibition of proliferation of human lung cancer LX-1 cells (MTT); assay type: cell-based; conditions: 120 h, human lung cancer LX-1, 37° C, 5 days
# Protocol: as §1, with “cells). […]” for “cells).”
# interleukin-1 = experiment: Enhancement of the production of interleukin-1 in vivo (uptake of 3H-TdR by D10.G4.1 cells); parameters: species or system CDF1 mice
# Protocol: (5) Experiments for estimation of the activity of the antibiotic MI43-37F11 substance to enhance the production of interleukin-1 in vivo was conducted by the following procedure. Thus, MI43-37F11 substance was orally administered to CDF1 mice (female, 6-week old) B at a dosage of 25 mg/kg. One day, 3 days, 5 days and […] the administration, peritoneal exudate cells (PEC) and spleen cells were respectively harvested from the mice of the treated group. The peritoneal exudate cells and spleen cells as harvested were independently divided into two classes, namely the class of the adherent cell which was adherent in its nature to the wall of a plastic dish and the class of the non-adherent cell. The whole peritoneal exudate cells (PEC), the adherent cells of PEC and the adherent cells of the spleen cell were separately suspended into aliquots of a culture medium to give a cell concentrations of 1×10^6 cells/well, 2×10^6 cells/well and 2.5×10^6 cells/well, respectively. After the incubation for 24 hours, the supernatants were collected by filtration of the incubated culture media and then assayed for their activity of interleukin-1 (IL-1) according to the method of Jonathan K. et al (see "Lymphokine Research" 3 (4), 175-182, (1984)). Namely, 100 μl of each supernatant obtained as above and Concanavalin A (to a final concentration of 2.5 μg/ml) were added to 100 μl of a cell suspension containing 1 x 10^5 cells/m(of D10.G4.1. cells which will proliferate in the presence of Concanavalin A plus interleukin-1 when the latter compounds are given. The resulting mixture was then incubated for 48 hours and then added with ^3 H-thymidine (^3 H-TdR), followed by further incubation for 16 hours. After this, the rate of uptake of ^3 H-TdR by the D10.G4.1. cells was determined in term of the radio-activity unit of c.p.m. The rate of uptake of ^3 H-TdR in the control group of mice (untreated) was also determined in the same manner as above.
# Solubility = assay type: physicochemical
# Toxicity to mammalian = assay type: in vivo; conditions: general statement, no data
smiles,measurement,setting,value
COc1cc(O)c2c(=O)oc(CO)cc2c1 [MI43-37F11 substance],IC50,mouse Leukemia L1210,50 µg/mL
same,IC50,mouse Leukemia EL4,52 µg/mL
same,IC50,human lung cancer LX-1,100 µg/mL
same,"Uptake of 3H-TdR, T/C %","interleukin-1; adherent cell in PEC, 1 day after 25 mg/kg oral",165.8%
same,"Uptake of 3H-TdR, c.p.m. ± S.D.","interleukin-1; adherent cell in PEC, 1 day after 25 mg/kg oral, control 10561 ± 1241, **",17510 ± 810 c.p.m.
same,"Uptake of 3H-TdR, T/C %","interleukin-1; adherent cell in PEC, 3 days after 25 mg/kg oral",131.7%
same,"Uptake of 3H-TdR, c.p.m. ± S.D.","interleukin-1; adherent cell in PEC, 3 days after 25 mg/kg oral, control 10561 ± 1241, **",13912 ± 1367 c.p.m.
same,"Uptake of 3H-TdR, T/C %","interleukin-1; adherent cell in PEC, 5 days after 25 mg/kg oral",253.4%
same,"Uptake of 3H-TdR, c.p.m. ± S.D.","interleukin-1; adherent cell in PEC, 5 days after 25 mg/kg oral, control 10561 ± 1241, ***",26759 ± 3601 c.p.m.
same,"Uptake of 3H-TdR, T/C %","interleukin-1; adherent cell in PEC, 7 days after 25 mg/kg oral",167.0%
same,"Uptake of 3H-TdR, c.p.m. ± S.D.","interleukin-1; adherent cell in PEC, 7 days after 25 mg/kg oral, control 10561 ± 1241, *",17639 ± 2699 c.p.m.
same,"Uptake of 3H-TdR, T/C %","interleukin-1; adherent cell in spleen cells, 1 day after 25 mg/kg oral",83.3%
same,"Uptake of 3H-TdR, c.p.m. ± S.D.","interleukin-1; adherent cell in spleen cells, 1 day after 25 mg/kg oral, control 2091 ± 481",1741 ± 352 c.p.m.
same,"Uptake of 3H-TdR, T/C %","interleukin-1; adherent cell in spleen cells, 3 days after 25 mg/kg oral",232.8%
same,"Uptake of 3H-TdR, c.p.m. ± S.D.","interleukin-1; adherent cell in spleen cells, 3 days after 25 mg/kg oral, control 2091 ± 481, **",4868 ± 497 c.p.m.
same,"Uptake of 3H-TdR, T/C %","interleukin-1; adherent cell in spleen cells, 5 days after 25 mg/kg oral",102.3%
same,"Uptake of 3H-TdR, c.p.m. ± S.D.","interleukin-1; adherent cell in spleen cells, 5 days after 25 mg/kg oral, control 2091 ± 481",2140 ± 121 c.p.m.
same,"Uptake of 3H-TdR, T/C %","interleukin-1; adherent cell in spleen cells, 7 days after 25 mg/kg oral",114.1%
same,"Uptake of 3H-TdR, c.p.m. ± S.D.","interleukin-1; adherent cell in spleen cells, 7 days after 25 mg/kg oral, control 2091 ± 481",2385 ± 134 c.p.m.
same,enhance the in vivo production of interleukin-1,interleukin-1; summary in words,effective
same,"Uptake of 3H-TdR, T/C %","interleukin-1; whole PEC, 1 day after 25 mg/kg oral",61.3%
same,"Uptake of 3H-TdR, c.p.m. ± S.D.","interleukin-1; whole PEC, 1 day after 25 mg/kg oral, control 7166 ± 752, **",4393 ± 397 c.p.m.
same,"Uptake of 3H-TdR, T/C %","interleukin-1; whole PEC, 3 days after 25 mg/kg oral",83.6%
same,"Uptake of 3H-TdR, c.p.m. ± S.D.","interleukin-1; whole PEC, 3 days after 25 mg/kg oral, control 7166 ± 752",5988 ± 602 c.p.m.
same,"Uptake of 3H-TdR, T/C %","interleukin-1; whole PEC, 5 days after 25 mg/kg oral",391.7%
same,"Uptake of 3H-TdR, c.p.m. ± S.D.","interleukin-1; whole PEC, 5 days after 25 mg/kg oral, control 7166 ± 752, ***",28072 ± 1174 c.p.m.
same,"Uptake of 3H-TdR, T/C %","interleukin-1; whole PEC, 7 days after 25 mg/kg oral",54.5%
same,Solubility,Solubility; in acetonitrile,easily soluble
same,Solubility,Solubility; in chloroform,soluble
same,Solubility,Solubility; in hexane,hardly soluble
same,Solubility,Solubility; in methanol,soluble
same,Solubility,Solubility; in water,hardly soluble
same,toxicity to mammalian,Toxicity to mammalian,low toxicity to mammalian; also recorded: without showing any observable toxicity to mammalian
